The values below come from patent US12545704B2, “Peptide for treating inflammation and wounds” (NIBEC CO., LTD., priority 2019, dated 2026).

The test system of series [1] is DSS-induced acute inflammatory bowel disease. As to the kind of experiment: Therapeutic effect in animal model of DSS-induced acute inflammatory bowel disease. It counts as in vivo, ICR mice. As to the method: In order to confirm the therapeutic effect of the synthesized peptide in animals, acute inflammatory bowel disease was induced with DSS in ICR mice (Orient Bio), and simultaneously, the synthesized peptide was injected thereto. Inflammation was induced in mice using 5% DSS as drinking water for 7 days, and simultaneously, the synthesized peptide was IP-injected thereto. The normal group (Normal, n=6) was not treated with DSS, and in the untreated group (No treatment, n=6), only DSS was used, and no drug was injected. The positive control group (SAHA, Sigma-Aldrich, 25 mg/kg, n=6), the immunomodulatory control group (Anti-TNF-a antibody, Pfizer, 1 mg/kg, n=6), and the peptide of SEQ ID NO: 1 (50 mg/kg, n=6) were injected once daily. After 7 days, mice were sacrificed by CO2 hyperventilation, the colons were collected, and the lengths thereof were compared. Additionally, the tissue was fixed and processed to prepare a paraffin block, and H&E staining was performed to determine whether the intestinal tissue was damaged.

Series [2] in a line: IVIS distribution of Cy5.5-labeled peptide in DSS-induced acute inflammatory bowel disease model. It counts as in vivo. The conditions noted are these: IP injection, DSS mice, 30, 60 and 180 minutes, FIG. 7. From the text:
In order to confirm distribution of the synthesized peptide to the colon, inflammation was induced in mice using 5% DSS as drinking water for 7 days, after which the Cy5.5-labeled peptide of SEQ ID NO: 1 was IP-injected thereto.

In another series the target is T1, type VII collagen (Homo sapiens, UniProt Q02388).
T1 construct: purchased MyBioSource, Inc. MBS2018615
T1 sequence (Q02388 17-2944): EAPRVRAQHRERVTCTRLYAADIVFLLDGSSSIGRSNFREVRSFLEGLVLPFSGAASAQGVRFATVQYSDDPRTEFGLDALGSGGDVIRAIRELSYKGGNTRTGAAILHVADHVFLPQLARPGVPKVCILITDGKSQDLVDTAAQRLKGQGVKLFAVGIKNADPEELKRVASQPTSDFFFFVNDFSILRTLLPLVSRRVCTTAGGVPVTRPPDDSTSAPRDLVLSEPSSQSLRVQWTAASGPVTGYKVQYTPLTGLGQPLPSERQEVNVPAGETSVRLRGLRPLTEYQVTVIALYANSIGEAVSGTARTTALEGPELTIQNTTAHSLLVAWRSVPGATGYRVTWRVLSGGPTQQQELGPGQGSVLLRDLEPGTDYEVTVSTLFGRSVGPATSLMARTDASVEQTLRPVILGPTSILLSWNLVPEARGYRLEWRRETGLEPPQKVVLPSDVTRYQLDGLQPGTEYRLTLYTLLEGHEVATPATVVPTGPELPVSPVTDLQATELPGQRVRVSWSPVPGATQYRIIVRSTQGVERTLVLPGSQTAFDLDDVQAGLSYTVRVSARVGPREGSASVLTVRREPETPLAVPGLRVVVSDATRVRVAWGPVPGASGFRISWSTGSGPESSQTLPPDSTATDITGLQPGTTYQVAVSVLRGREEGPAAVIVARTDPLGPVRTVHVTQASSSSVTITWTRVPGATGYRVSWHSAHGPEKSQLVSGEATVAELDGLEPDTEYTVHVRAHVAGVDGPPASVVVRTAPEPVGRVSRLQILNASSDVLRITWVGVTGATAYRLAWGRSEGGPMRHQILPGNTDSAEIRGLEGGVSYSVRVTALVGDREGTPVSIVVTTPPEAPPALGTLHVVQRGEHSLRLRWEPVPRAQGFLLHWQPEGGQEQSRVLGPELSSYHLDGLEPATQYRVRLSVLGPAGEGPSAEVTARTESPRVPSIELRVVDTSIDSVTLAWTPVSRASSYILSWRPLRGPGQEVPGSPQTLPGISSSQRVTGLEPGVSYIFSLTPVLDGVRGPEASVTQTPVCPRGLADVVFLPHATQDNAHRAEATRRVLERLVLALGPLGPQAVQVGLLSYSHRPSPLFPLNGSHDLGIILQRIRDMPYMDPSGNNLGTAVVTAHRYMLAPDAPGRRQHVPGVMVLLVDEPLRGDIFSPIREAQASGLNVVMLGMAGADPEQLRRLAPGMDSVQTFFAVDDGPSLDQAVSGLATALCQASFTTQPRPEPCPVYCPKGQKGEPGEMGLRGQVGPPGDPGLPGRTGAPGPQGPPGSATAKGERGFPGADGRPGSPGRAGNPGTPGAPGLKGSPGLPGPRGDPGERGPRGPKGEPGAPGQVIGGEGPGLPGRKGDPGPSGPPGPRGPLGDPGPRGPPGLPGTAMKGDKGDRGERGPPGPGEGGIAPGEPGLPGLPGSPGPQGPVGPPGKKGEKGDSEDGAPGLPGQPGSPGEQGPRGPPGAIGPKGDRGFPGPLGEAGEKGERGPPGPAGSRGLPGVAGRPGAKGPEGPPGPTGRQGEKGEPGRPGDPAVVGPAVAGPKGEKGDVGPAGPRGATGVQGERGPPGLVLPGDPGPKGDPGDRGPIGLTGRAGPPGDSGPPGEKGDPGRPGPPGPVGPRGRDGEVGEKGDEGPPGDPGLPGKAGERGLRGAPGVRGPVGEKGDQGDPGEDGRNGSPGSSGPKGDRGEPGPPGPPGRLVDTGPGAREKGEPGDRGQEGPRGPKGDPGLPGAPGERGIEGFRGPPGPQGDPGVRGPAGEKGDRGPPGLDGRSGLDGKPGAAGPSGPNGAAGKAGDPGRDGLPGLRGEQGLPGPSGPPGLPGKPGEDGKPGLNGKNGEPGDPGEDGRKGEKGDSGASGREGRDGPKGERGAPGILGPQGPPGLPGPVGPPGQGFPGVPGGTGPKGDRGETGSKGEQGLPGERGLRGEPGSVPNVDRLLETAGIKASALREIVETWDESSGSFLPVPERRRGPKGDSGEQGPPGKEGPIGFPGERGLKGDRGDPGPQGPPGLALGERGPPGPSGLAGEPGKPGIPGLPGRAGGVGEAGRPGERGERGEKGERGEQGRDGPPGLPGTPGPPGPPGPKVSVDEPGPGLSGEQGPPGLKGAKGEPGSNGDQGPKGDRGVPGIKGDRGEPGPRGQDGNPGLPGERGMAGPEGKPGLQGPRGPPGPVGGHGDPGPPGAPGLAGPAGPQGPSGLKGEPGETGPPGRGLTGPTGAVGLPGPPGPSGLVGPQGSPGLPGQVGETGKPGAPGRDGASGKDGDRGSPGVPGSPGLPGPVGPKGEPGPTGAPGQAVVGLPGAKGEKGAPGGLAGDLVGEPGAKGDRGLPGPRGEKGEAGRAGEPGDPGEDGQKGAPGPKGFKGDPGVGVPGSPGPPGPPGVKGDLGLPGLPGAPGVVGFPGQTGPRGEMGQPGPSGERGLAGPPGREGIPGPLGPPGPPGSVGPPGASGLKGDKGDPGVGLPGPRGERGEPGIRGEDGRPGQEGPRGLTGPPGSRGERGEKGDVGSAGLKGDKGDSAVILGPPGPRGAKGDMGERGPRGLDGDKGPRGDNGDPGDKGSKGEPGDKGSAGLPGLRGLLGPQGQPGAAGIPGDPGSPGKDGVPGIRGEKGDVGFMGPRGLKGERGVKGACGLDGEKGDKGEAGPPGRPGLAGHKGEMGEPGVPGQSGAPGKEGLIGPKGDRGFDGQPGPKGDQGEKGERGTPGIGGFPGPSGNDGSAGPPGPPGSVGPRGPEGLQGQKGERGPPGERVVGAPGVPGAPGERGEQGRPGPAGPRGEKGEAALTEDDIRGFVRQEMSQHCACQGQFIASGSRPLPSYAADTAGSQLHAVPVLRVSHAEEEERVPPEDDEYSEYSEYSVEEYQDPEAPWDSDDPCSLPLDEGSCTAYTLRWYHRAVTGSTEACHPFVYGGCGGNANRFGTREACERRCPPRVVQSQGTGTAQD
As to the kind of experiment: Slot blotting, selectivity to collagen types: type VII (Experimental Example 2). It counts as binding. On the procedure:
(§1) In order to confirm the selectivity of peptides of SEQ ID NOS: 1 to 3 to collagen types, slot blotting was performed for types I, IV and VII collagen. The NC membrane was activated with TBST, and the peptides of SEQ ID NOS: 1, 2 and 3 were placed in each well at different concentrations (5, 10, 25, 50, and 100 μg/mL) and allowed to bind to the NC membrane in a vacuum for 2 hours. A 1% solution of each of types I, IV and VII collagen (MyBioSource, Inc., San Diego, CA, USA, MBS2018615) was added to the peptide-bound membrane and allowed to bind to the membrane in a vacuum for 2 hours. The membrane was washed with TBST, and the membrane to which the peptides and types I, IV, and VII collagen were attached was allowed to react with a primary rabbit anti-human type VII collagen antibody (MyBioSource, Inc., San Diego, CA, USA, MBS2004594) at a dilution ratio of 1:800 and with a secondary antibody goat anti-rabbit Ig G (BETHYL Lab., Montgomery, TX, USA, A90-116P) at a dilution ratio of 1:5000. The reacted membrane was washed with TBST, and a chemiluminescence test was performed using WEST-one.

The next series deals with type IV collagen. As to the kind of experiment: Slot blotting, selectivity to collagen types: type IV (Experimental Example 2). It counts as binding. Conditions: peptide up to 100 μg/mL, FIG. 3. As to the method: as §1
Series [3] deals with colonic epithelial cells (Caco-2 cell). Description: Proliferation of colonic epithelial cells (CCK-8). It counts as cell-based. Conditions: 100 μM, 3rd day, FIG. 5. On the procedure:
In order to confirm the proliferation and migration in colonic epithelial cells (Caco-2 cell, ATCC® HTB-37™) by the peptide according to the present invention, the cells were dispensed in an amount of 5×10^3 cells/well in a 96-well plate and then cultured for 24 hours in DMEM (Dulbecco's Modified Eagle Medium, Gibco). The peptides (SEQ ID NOS: 1, 2, and 3) were dispensed at a concentration of 100 μM in the cells and then cultured for up to 3 days at intervals of 1 day. The cell count was measured using a CCK-8 (Cell Counting Kit-8, CK04, Dojindo Lab.). After 1, 2, and 3 days, the medium containing the peptide was removed, 10% of a CCK-8 solution was added to fresh DMEM, and 100 μl thereof was then dispensed. After 1 hour and 30 minutes, absorbance was measured at 450 nm.

In another series the test system is E-cadherin. As to the kind of experiment: Real-time RT-PCR of wound-healing marker E-cadherin in colonic epithelial cells. The format is cell-based. The conditions noted are these: Caco-2 cells; 50 and 100 μg/ml; 3 days; FIG. 4. As to the method:
(§2) In order to confirm the expression level of the wound-healing marker in colonic epithelial cells (Caco-2 cell, ATCC® HTB-37™) by the peptide according to the present invention, colonic epithelial cells were dispensed in an amount of 5×10^6 cells/well in a 6-well plate and then cultured for 24 hours in DMEM (Dulbecco's Modified Eagle Medium, Gibco). The cells were treated with the peptides of SEQ ID NOS: 1, 2, and 3 at concentrations of 50 and 100 μg/ml and then cultured for up to 3 days. After 3 days, the cells were harvested and the gene expression levels of E-cadherin protein, which is highly expressed in colonic epithelial cells, and ZO-1 protein, which is highly expressed at the tight junction between colonic epithelial cells, were measured through real-time RT-PCR.
(§3) RNA was extracted from the obtained cells using TRIzol, and cDNA was synthesized using a kit from Thermo Scientific (cat. No. K1641). The same amount of cDNA was amplified by 40 cycles at 95° C.-60° C. using a SYBR green PCR master mix and a StepOnePlus™ Real-Time PCR System available from Applied Biosystems, and the ΔΔct values of individual groups were compared. The nucleotide sequences of the PCR primers used for amplification of each gene are as follows.

The test system of the next series is ZO-1. As to the kind of experiment: Real-time RT-PCR of wound-healing marker ZO-1 in colonic epithelial cells. It counts as cell-based. The conditions noted are these: Caco-2 cells; 50 and 100 μg/ml; 3 days; FIG. 4. As to the method:
as §2, §3
On the technique in general: In qPCR the cycle at which signal appears reflects the starting amount.

The next series deals with T2, type I collagen (Homo sapiens, UniProt P02452+P08123).
T2 construct: purchased MyBioSource, Inc
As to the kind of experiment: Slot blotting, selectivity to collagen types: type I (Experimental Example 2). The format is binding. The conditions noted are these: peptide at 5, 10, 25, 50 and 100 μg/mL, FIG. 3. As to the method: as §1

For another series, the system named is Caco-2 cells. Description: Scratch migration of colonic epithelial cells. It counts as cell-based. Conditions: Caco-2 scratch, 100 μM, FIG. 6. As to the method:
In order to measure cell migration ability, Caco-2 cells (1×10^6 cells) were placed in a 6-well plate and cultured in DMEM supplemented with 10% fetal bovine serum (FBS) and 1% antibiotic-antimycotic solution (Gibco, Grand Island, N.Y., USA). The cells were washed with PBS and allowed to stand overnight in a medium containing 2% FBS. The central portion of the cell layer was scratched using a sterile 200 μl plastic pipette tip. The scratched cell layer was washed twice with PBS to remove unadhered cells. Each of the peptides of SEQ ID NOS: […] at a concentration of 100 μM to the medium, followed by culture for up to 48 hours. The extent of cell migration toward the center from the scratched edges was measured using an Olympus CKX41 inverted microscope (magnification: ×20).

A further series has as its target T3, integrin beta 1 (Mus musculus, UniProt P09055).
T3 construct: from tissue; host or cells: colon of mice with DSS-induced colitis
Description: Confocal co-localization of Cy5.5-labeled peptide with integrin beta 1 in colon tissue. It counts as in vivo, mice. The conditions noted are these: 1 hour after injection, FIG. 11. From the text:
In order to confirm co-localization of synthesized peptide to the colon, inflammation was induced in mice using 5% DSS in drinking water for 7 days, followed by the cy5.5-labeled peptide of SEQ ID NO: 1 was […] thereto. An hour after injection, each mouse was sacrificed and the colon tissue was isolated for analysis. Excised colons were fixed with 4% paraformaldehyde, and made frozen tissue block with Tissue-Tek® O.C.T. compound (4583, Sakura). Frozen tissue block was sectioned using clinical cryostat (CM1950, Leica) and placed on microscope slides.
Each sectioned tissue slides were stained for immunofluorescence. In brief, sectioned slides were permeabilized with 0.5% Triton X-100 (9036-19-5, Sigma-Aldrich) in PBS for 10 min. Next, 5% BSA in PBS were treated 30 minutes for blocking, followed by overnight incubation of anti-integrin beta 1 diluted in blocking buffer. After washing the slides, Alexa Fluor 488 conjugated anti-mouse secondary antibody (A-11001, Thermo Fisher Scientific) was diluted and incubated for an hour, and DAPI staining. Slides were mounted for imaging in confocal microscopy (LSM700, Carl Zeiss).

Series [4] concerns DSS-induced chronic inflammatory bowel disease. As to the kind of experiment: Therapeutic effect in animal model of DSS-induced chronic inflammatory bowel disease. It counts as in vivo, ICR mice. On the procedure: In order to confirm the therapeutic effect of the synthesized peptide in animals, chronic inflammatory bowel disease was induced with DSS in ICR mice (Orient Bio). 1.5% DSS was used as drinking water for 7 days, water not containing DSS was provided for the next 7 days, and 1.5% DSS was used as drinking water for the next 7 days (FIG. 9A). Thereafter, the peptide of SEQ ID NO: 1 was administered through SC injection. The normal group (Normal, n=9) was not treated with DSS, and the untreated group (Untreated, n=9) was treated only with DSS, and no drug was injected. The positive control group (Infliximab, 5 mg/kg, n=9) and the peptide of SEQ ID NO: 1 (30 mg/kg, n=9) were injected once daily for 14 days. 28 days after the start of DSS administration, the animals were sacrificed by CO2 hyperventilation, the colons were collected, and the lengths thereof were compared. Additionally, the tissue was fixed and processed to prepare a paraffin block, and H&E staining was performed to determine whether the intestinal tissue was damaged.

No end group written: not given here.

T3 sequence (P09055 21-798): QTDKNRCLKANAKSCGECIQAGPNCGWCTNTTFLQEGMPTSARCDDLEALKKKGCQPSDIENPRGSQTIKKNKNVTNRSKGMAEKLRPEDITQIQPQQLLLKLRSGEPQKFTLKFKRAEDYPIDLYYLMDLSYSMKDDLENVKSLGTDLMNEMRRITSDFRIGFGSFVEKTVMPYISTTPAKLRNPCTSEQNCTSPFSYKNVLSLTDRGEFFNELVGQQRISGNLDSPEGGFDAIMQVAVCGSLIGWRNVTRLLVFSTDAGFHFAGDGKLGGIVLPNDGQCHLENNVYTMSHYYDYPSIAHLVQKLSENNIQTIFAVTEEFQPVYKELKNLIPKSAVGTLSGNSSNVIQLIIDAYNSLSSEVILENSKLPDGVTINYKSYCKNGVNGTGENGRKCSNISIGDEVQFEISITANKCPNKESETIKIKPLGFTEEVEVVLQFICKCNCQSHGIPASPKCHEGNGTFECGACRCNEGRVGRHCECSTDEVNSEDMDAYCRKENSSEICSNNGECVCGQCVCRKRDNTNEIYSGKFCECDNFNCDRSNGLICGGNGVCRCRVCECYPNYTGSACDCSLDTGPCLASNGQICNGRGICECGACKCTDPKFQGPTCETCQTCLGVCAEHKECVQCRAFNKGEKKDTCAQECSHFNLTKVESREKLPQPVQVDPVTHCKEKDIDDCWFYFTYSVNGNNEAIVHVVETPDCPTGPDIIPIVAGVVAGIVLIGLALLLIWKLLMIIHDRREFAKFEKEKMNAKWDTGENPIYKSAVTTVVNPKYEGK

In the case of `O=C(CCCCCCC(=O)Nc1ccccc1)NO` [SAHA], in [1] (5% DSS 7 days, IP once daily, SEQ ID NO: 1 50 mg/kg, SAHA 25 mg/kg, antibody 1 mg/kg, p<0.05 vs untreated, FIG. 8), the colon length entry was “maintained the colon length”. Also, in [1] (acute DSS model, FIG. 8 part c), the “inflammatory cells in the intestinal mucosa (H&E histology)” value is “significantly decreased” and the “villi structure (H&E histology)” value is “villi structure was maintained well”.

For the compound Cy5.5 [reference compound], the “fluorescence in small intestine and colon (IVIS)” value in series [2] is given as “almost no fluorescence was observed at 180 minutes”.

As to “RPRYYLYKHAYFYPHLKRFP (human bone sialoprpotein II 41-60) [SEQ ID NO: 2, Human bone sialoprotein II 41-60]”, the “selectivity to type VII collagen versus types I and IV collagen” value with type VII collagen is “higher selectivity to type VII collagen”. In addition, in the series with type VII collagen (peptide at 5, 10, 25, 50 and 100 μg/mL, FIG. 3), the “peptide concentration at which binding to type VII collagen was observed” value was “at least 20 μg/mL”. For the same compound, the “binding to type IV collagen” value in the series with type IV collagen is on record as “did not bind”. Further, the “cell proliferation rate compared to the control group (cells not treated with the peptide)” value in [3] stood at 56%. Also, the “gene expression of E-cadherin” value in the series on E-cadherin is recorded as “increased with an increase in the concentration of the peptide”. For the same compound, in the series with ZO-1, the “gene expression of ZO-1” value was “increased with an increase in the concentration of the peptide”. In addition, the “peptide concentration at which binding to type I collagen was observed” value with type I collagen came out at 50 µg/mL. In the series with Caco-2 cells (2nd day), this compound registered a migration area of 75%. For the same compound, the “cell migration compared to cells not treated with the peptide” value in the series on Caco-2 cells (up to 48 hours) is on record as “increased cell migration”.

In the case of “YGLRSKSKKFRRPDIQYPDAT-NH2 (C-terminus assumed) [SEQ ID NO: 1]”, the “fluorescence in small intestine and colon (IVIS)” value in [2] is “red fluorescence was constantly observed in the small intestine and colon from the initial 30 minutes to 180 minutes”. The “localization of peptide in DSS-induced mouse colon” value at integrin beta 1 (5% DSS 7 days) is reported as “detected in colon tissue”. Besides, on integrin beta 1, the “localization of peptide in normal colon” value is listed as “does not show any localization”.

For the compound infliximab, in [4] (FIG. 9G), the “inflammatory cells in the intestinal mucosa (H&E histology)” value is on record as “inflammatory cells in the intestinal mucosa were observed” and the “villi structure (H&E histology)” value was “some improvement compared to the untreated group, but villous damage”. The colon length entry in [4] (SEQ ID NO: 1 30 mg/kg SC, infliximab 5 mg/kg, once daily 14 days, p<0.05 vs untreated, FIG. 9D) was “maintained the colon length”.
